From publication PMC10700596 (Nature Communications, 2023)
Where “and” joins values, the source holds several entries; their conditions need not be identical. Identical values can stand only once. Entries after “also recorded” stand apart in the source; their conditions may differ. Like-named read-outs stand apart in the source and are kept apart here.

Experiments:
in vivo = format: in vivo, mice; settings: mice; for CSF concentration, Final / Brain concentration, Final / Plasma concentration, Final: listed as 7827_0016, 10 mg/kg
CDK3 = CDK3 (Homo sapiens, UniProt Q00526); assay: biochemical; format: binding; settings: 10000 nM; read-out: Percent Control
Chain of CDK3 (Q00526 whole entry): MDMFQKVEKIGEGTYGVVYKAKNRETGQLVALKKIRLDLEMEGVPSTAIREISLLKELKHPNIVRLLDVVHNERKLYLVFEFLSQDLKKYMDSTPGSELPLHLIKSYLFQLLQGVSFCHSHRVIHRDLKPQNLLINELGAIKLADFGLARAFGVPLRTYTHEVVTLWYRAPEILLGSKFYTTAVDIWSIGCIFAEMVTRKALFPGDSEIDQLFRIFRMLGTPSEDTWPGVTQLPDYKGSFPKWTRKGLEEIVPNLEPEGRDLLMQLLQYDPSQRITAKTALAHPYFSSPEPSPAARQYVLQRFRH

EP4R = target: T1, EP4R (Homo sapiens, UniProt P35408); assay: PRESTO-Tango β-arrestin2 recruitment assay; format: cell-based
T1 construct: Tango fusion cassette (only 'tango' is printed); expressed in transfected cells; host or cells: HTLA cells (tTA-dependent luciferase reporter, β-arrestin2-TEV fusion)
T1 sequence (P35408 whole entry, the tested form may be a part): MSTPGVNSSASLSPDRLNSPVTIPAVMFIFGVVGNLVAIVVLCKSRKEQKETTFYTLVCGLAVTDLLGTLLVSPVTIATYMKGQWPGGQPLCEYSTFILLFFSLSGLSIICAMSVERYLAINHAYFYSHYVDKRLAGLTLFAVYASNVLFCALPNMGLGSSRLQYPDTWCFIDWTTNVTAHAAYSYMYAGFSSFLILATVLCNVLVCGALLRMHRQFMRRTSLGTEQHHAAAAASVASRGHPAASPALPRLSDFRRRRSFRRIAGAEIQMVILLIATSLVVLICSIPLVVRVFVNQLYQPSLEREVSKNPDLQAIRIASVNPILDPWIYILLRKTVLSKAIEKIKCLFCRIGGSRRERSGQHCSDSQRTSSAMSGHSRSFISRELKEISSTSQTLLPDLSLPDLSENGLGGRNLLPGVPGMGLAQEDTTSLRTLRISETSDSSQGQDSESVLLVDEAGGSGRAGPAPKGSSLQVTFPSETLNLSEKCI

wild-type EP4R = wild-type EP4R (Homo sapiens, UniProt P35408); assay: cell-based
Chain of wild-type EP4R (P35408 whole entry): as the sequence (P35408 whole entry, the tested form may be a part) above

COX-1 = target: T2, COX-1 (Homo sapiens, UniProt P23219); assay: COX-1 inhibition (Eurofins item 4173); format: biochemical
T2 construct: purchased Eurofins item 4173
T2 sequence (P23219 24-599): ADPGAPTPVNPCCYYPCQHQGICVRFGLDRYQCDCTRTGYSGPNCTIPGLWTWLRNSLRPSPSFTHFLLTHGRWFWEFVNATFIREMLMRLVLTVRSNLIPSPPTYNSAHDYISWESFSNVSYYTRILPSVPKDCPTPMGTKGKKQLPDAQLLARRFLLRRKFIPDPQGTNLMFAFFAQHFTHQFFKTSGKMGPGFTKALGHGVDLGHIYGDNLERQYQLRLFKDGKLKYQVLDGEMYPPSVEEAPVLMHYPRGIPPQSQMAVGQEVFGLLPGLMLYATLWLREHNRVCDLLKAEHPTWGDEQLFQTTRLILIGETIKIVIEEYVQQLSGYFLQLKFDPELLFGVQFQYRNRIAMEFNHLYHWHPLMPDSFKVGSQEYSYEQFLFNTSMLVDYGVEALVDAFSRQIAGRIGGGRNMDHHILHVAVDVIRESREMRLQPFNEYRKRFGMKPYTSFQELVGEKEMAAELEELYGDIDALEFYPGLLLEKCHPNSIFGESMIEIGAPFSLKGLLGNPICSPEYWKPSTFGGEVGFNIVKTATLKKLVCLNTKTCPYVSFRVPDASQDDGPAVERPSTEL
From the text: . […] This panel includes several adverse drug reaction receptors such as the serotonin receptor 5HT2b, M1 and M2 muscarinic receptors and adrenergic receptors. […]. page 7:
Supplementary Figure 7: Non-GPCR off-target screening for 74. a)-e) Dose-response curves of 74 at […]
proliferator-activated receptor gamma (PPARγ, Eurofins item G124). Data in a)-e) and g)-i) represent two technical replicates. Source data are provided as a Source Data file.
(1 picture or pasted object on this page, not shown here)

[1] = target: ABL1(T315I)-phosphorylated (Homo sapiens, UniProt P00519, T315I); assay: biochemical; format: binding; settings: 10000 nM; read-out: Percent Control
[2] = IP 10 mg/kg, 5 min, individual animals
[3] = IP 10 mg/kg, 15 min, individual animals
[4] = IP 10 mg/kg, 30 min, individual animals
[5] = IP 10 mg/kg, 60 min, individual animals
[6] = IP 10 mg/kg, 120 min, individual animals
[7] = IP 10 mg/kg, 240 min, individual animals
[8] = IP 10 mg/kg, 360 min, individual animals
[9] = IP 10 mg/kg, 480 min, individual animals

For `O=C(O)C1CCC2(CC1)CC(Nc1ncnc3[nH]c4c(F)cccc4c13)C2` (centres unmarked) [Compound 74, OC(=O)C1CCC2(CC(C2)NC=3N=CN=C4NC=5C(F)=CC=CC5C34)CC1], which concentration at 5 min (in vivo; male, CD-1, mouse, plasma, ip, 10 mg/kg, IP 10 mg/kg, plasma, 5 min, mean, read-out: Plasma concentrations of cmpd 7827_0016 in mice following IP (10 mg/kg) administration, C) is on record?
Its concentration at 5 min is 1150 ng/mL.

What about the concentration at 15 min (in vivo; male, CD-1, mouse, plasma, ip, 10 mg/kg, IP 10 mg/kg, plasma, 15 min, individual animals, read-out: Plasma concentration, Final) of the same compound?
The concentration at 15 min was 3720 ng/mL.

And the concentration at 15 min (in vivo; male, CD-1, mouse, plasma, ip, 10 mg/kg, IP 10 mg/kg, plasma, 15 min, mean, read-out: Plasma concentrations of cmpd 7827_0016 in mice following IP (10 mg/kg) administration, C)?
The concentration at 15 min was 4580 ng/mL.

What about the concentration at 30 min (in vivo; male, CD-1, mouse, plasma, ip, 10 mg/kg, IP 10 mg/kg, plasma, 30 min, individual animals, read-out: Plasma concentration, Final) of the same compound?
The concentration at 30 min was 4610 ng/mL.

What about the concentration at 30 min (in vivo; male, CD-1, mouse, plasma, ip, 10 mg/kg, IP 10 mg/kg, plasma, 30 min, mean, read-out: Plasma concentrations of cmpd 7827_0016 in mice following IP (10 mg/kg) administration, C) of the same compound?
The concentration at 30 min was 6390 ng/mL.

What about the concentration at 60 min (in vivo; male, CD-1, mouse, plasma, ip, 10 mg/kg, IP 10 mg/kg, plasma, 60 min, individual animals, read-out: Plasma concentration, Final) of the same compound?
The concentration at 60 min was 6620 ng/mL.

What about the concentration at 60 min (in vivo; male, CD-1, mouse, plasma, ip, 10 mg/kg, IP 10 mg/kg, plasma, 60 min, mean, read-out: Plasma concentrations of cmpd 7827_0016 in mice following IP (10 mg/kg) administration, C) of the same compound?
The concentration at 60 min was 6670 ng/mL.

What about the concentration at 120 min (in vivo; male, CD-1, mouse, plasma, ip, 10 mg/kg, IP 10 mg/kg, plasma, 120 min, mean, read-out: Plasma concentrations of cmpd 7827_0016 in mice following IP (10 mg/kg) administration, C) of the same compound?
Its concentration at 120 min is 3050 ng/mL.

What about the concentration at 240 min (in vivo; male, CD-1, mouse, plasma, ip, 10 mg/kg, IP 10 mg/kg, plasma, 240 min, mean, read-out: Plasma concentrations of cmpd 7827_0016 in mice following IP (10 mg/kg) administration, C) of the same compound?
Its concentration at 240 min is 1220 ng/mL.

What about the concentration at 360 min (in vivo; male, CD-1, mouse, plasma, ip, 10 mg/kg, IP 10 mg/kg, plasma, 360 min, individual animals, read-out: Plasma concentration, Final) of the same compound?
Its concentration at 360 min is 1220 ng/mL.

What about the concentration at 360 min (in vivo; male, CD-1, mouse, plasma, ip, 10 mg/kg, IP 10 mg/kg, plasma, 360 min, mean, read-out: Plasma concentrations of cmpd 7827_0016 in mice following IP (10 mg/kg) administration, C) of the same compound?
Its concentration at 360 min is 1110 ng/mL.

And the concentration at 480 min (in vivo; male, CD-1, mouse, plasma, ip, 10 mg/kg, IP 10 mg/kg, plasma, 480 min, mean, read-out: Plasma concentrations of cmpd 7827_0016 in mice following IP (10 mg/kg) administration, C)?
The concentration at 480 min was 1230 ng/mL.

What about the concentration at 1440 min (in vivo; male, CD-1, mouse, plasma, ip, 10 mg/kg, IP 10 mg/kg, plasma, 1440 min, mean, read-out: Plasma concentrations of cmpd 7827_0016 in mice following IP (10 mg/kg) administration, C) of the same compound?
Its concentration at 1440 min is 83.4 ng/mL.

And the Cmax (in vivo; male, CD-1, mouse, plasma, ip, 10 mg/kg i.p.)?
Its Cmax is 6670 ng/mL.

And the AUC (in vivo; male, CD-1, mouse, plasma, ip, 10 mg/kg i.p., read-out: plasma AUC (converted))?
Its AUC is 24200 ng·h/mL.

And the “CSF concentration, Final” value (in vivo; [2])?
Its value is 0 ng/mL and 47.1 ng/mL.

What about the “CSF concentration, Final” value (in vivo; [3]) of the same compound?
Its value is 76.0 ng/mL and 109 ng/mL and 26.8 ng/mL.

And the “CSF concentration, Final” value (in vivo; [4])?
The value was 63.1 ng/mL and 31.1 ng/mL and 148 ng/mL.

And the “CSF concentration, Final” value (in vivo; [5])?
The value was 333 ng/mL and 43.7 ng/mL and 98.0 ng/mL.

What about the “CSF concentration, Final” value (in vivo; [6]) of the same compound?
Its value is 23.6 ng/mL and 138.9 ng/mL and 195.0 ng/mL.

What about the “CSF concentration, Final” value (in vivo; [7]) of the same compound?
Its value is 8.55 ng/mL and 16.8 ng/mL and 52.8 ng/mL.

And the “CSF concentration, Final” value (in vivo; [8])?
The value was 72.8 ng/mL and 71.4 ng/mL.

What about the “CSF concentration, Final” value (in vivo; [9]) of the same compound?
Its value is 16.7 ng/mL and 5.28 ng/mL and 0 ng/mL.

What about the “CSF concentration, Final” value (in vivo; IP 10 mg/kg, 1440 min, individual animals) of the same compound?
Its value is 32.4 ng/mL and 0 ng/mL.

And the “Brain concentration, Final” value (in vivo; [2])?
The value was 63.0 ng/g and 61.5 ng/g.

And the “Brain concentration, Final” value (in vivo; [3])?
Its value is 140 ng/g and 112 ng/g.

What about the “Brain concentration, Final” value (in vivo; [4]) of the same compound?
Its value is 168 ng/g and 291 ng/g.

What about the “Brain concentration, Final” value (in vivo; [5]) of the same compound?
Its value is 124 ng/g and 174 ng/g.

And the “Brain concentration, Final” value (in vivo; [6])?
The value was 40.2 ng/g and 117 ng/g and 89.0 ng/g.

And the “Brain concentration, Final” value (in vivo; [7])?
The value was 26.0 ng/g and 26.4 ng/g.

And the “Brain concentration, Final” value (in vivo; [8])?
The value was 33.7 ng/g and 18.5 ng/g.

What about the “Brain concentration, Final” value (in vivo; [9]) of the same compound?
Its value is 9.82 ng/g and 13.1 ng/g and 57.1 ng/g.

And the “Plasma concentration, Final” value (in vivo; IP 10 mg/kg, plasma, 5 min, individual animals)?
Its value is 937 ng/mL and 1166 ng/mL.

And the “Plasma concentration, Final” value (in vivo; IP 10 mg/kg, plasma, 15 min, individual animals)?
Its value is 5726 ng/mL and 4307 ng/mL.

And the “Plasma concentration, Final” value (in vivo; IP 10 mg/kg, plasma, 30 min, individual animals)?
The value was 6345 ng/mL and 8215 ng/mL.

And the “Plasma concentration, Final” value (in vivo; IP 10 mg/kg, plasma, 60 min, individual animals)?
The value was 5152 ng/mL and 8232 ng/mL.

What about the “Plasma concentration, Final” value (in vivo; IP 10 mg/kg, plasma, 120 min, individual animals) of the same compound?
The value was 1532 ng/mL and 4227 ng/mL and 3400 ng/mL.

What about the “Plasma concentration, Final” value (in vivo; IP 10 mg/kg, plasma, 240 min, individual animals) of the same compound?
The value was 751 ng/mL and 1518 ng/mL and 1407 ng/mL.

And the “Plasma concentration, Final” value (in vivo; IP 10 mg/kg, plasma, 360 min, individual animals)?
Its value is 1143 ng/mL and 957 ng/mL.

And the “Plasma concentration, Final” value (in vivo; IP 10 mg/kg, plasma, 480 min, individual animals)?
The value was 516 ng/mL and 763 ng/mL and 2398 ng/mL.

What about the “Plasma concentration, Final” value (in vivo; IP 10 mg/kg, plasma, 1440 min, individual animals) of the same compound?
The value was 250 ng/mL and 0 ng/mL.

What about the remaining activity at 10 µM (CDK3) of the same compound?
Its remaining activity at 10 µM is 100%.

What about the IC50 (EP4R; PRESTO-Tango IC50 (nM)) of the same compound?
Its IC50 is 302 nM.

What about the Ki (EP4R; calculated using the Cheng Prusoff equation, read-out: PRESTO-Tango Ki*) of the same compound?
Its Ki is 60.4 nM.

What about the IC50 (wild-type EP4R) of the same compound?
The IC50 was 78.9 nM.

What about the “mode of antagonism by Schild analysis” value (wild-type EP4R) of the same compound?
The value was “competitive antagonism”.

And the Ki (wild-type EP4R; calculated using the Cheng Prusoff equation, read-out: Arrestin-BRET Ki*)?
The Ki was 15.6 nM.

And the “inhibitory / off-target activity at COX-1” value (COX-1; 3 µM)?
Its value is “no off-target activity; also recorded: no inhibitory activity”.

And the “%Inhibition of Control Values” (COX-1; COX-1, 3 µM, technical replicates)?
The value was -5.7% and -9.9%.

What about the remaining activity at 10 µM [1] of the same compound?
The remaining activity at 10 µM was 82%.
